# Source: PubChem BioAssay (NCI)
# “And” between values parts separate entries of the source, which are not always exact repeats. Identical values can stand only once.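 Grown in 96-well plates, cells were treated for 48 hours with each compound at five concentrations. Insufficient inhibition: endpoint recorded as highest concentration tested. GI50 is the concentration that inhibits growth by half. Definition used: TGI = concentration required for complete inhibition of growth.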
# Legend:
# Assay in all cases: growth of human tumour cells (NCI), 48 h
# ACHN renal = tested on: ACHN renal
# HCT-15 colon = tested on: HCT-15 colon
# HOP-62 NSCLC = tested on: HOP-62 NSCLC
# MDA-MB-231 breast = tested on: MDA-MB-231 breast
# NCI-H226 lung = tested on: NCI-H226 lung
# OVCAR-3 ovarian = tested on: OVCAR-3 ovarian
# SK-OV-3 ovarian = tested on: SK-OV-3 ovarian
# UACC-62 melanoma = tested on: UACC-62 melanoma
# UO-31 renal = tested on: UO-31 renal
# SR leukemia = tested on: SR leukemia
SMILES,TGI (ACHN renal) [µM],TGI (HCT-15 colon),TGI (HOP-62 NSCLC) [µM],TGI (MDA-MB-231 breast) [µM],TGI (NCI-H226 lung) [µM],TGI (OVCAR-3 ovarian) [µM],TGI (SK-OV-3 ovarian),TGI (UACC-62 melanoma) [µM],TGI (UO-31 renal) [µM],GI50 (ACHN renal) [µM],GI50 (HCT-15 colon) [µM],GI50 (HOP-62 NSCLC) [µM],GI50 (MDA-MB-231 breast) [µM],GI50 (OVCAR-3 ovarian) [µM],GI50 (SK-OV-3 ovarian) [µM],GI50 (SR leukemia),TGI (SR leukemia),GI50 (UACC-62 melanoma) [µM],GI50 (UO-31 renal) [µM],GI50 (NCI-H226 lung) [µM]
CC1(C)C(N2CCOCC2)CS1(=O)=O (configuration not stated),> 10,> 10 µM,> 10,> 10,> 10,> 10,> 10 µM,> 10,> 10,,,,,,,,,,,
CN(C)c1ccc(/C=C(\C#N)c2cc3ccccc3[nH]2)cc1,> 100,> 100 µM,4.54,> 100,,4.06,> 100 µM,> 100,> 100,2.42,0.509,1.16,1.63,0.409,2.28,0.497 µM,> 100 µM,0.679,2.01,
Brc1ccccc2cc(-c3ccccc3)nc1-2,20.6,17.1 µM,42.9,> 42.3,37.7,12.3,37.8 µM,23.7,25.5,,,,,,,,,,,
CCOC(=O)C1=C(C)NC(=O)NC1c1ccc(OC)cc1OC (configuration not stated),> 100,> 100 µM,> 100,,> 100,> 100,> 100 µM,> 100,> 100,,,,,,,,> 100 µM,,,
COc1ccc(Oc2nc3cc(N)cc(N)c3nc2-c2ccccc2)cc1,> 100,> 100 µM,40.8,64.5,,72.7,55 µM,> 100,> 100,36.4,52.1,,20.4,14.9,25.5,18.5 µM,> 100 µM,63.5,28.5,
C=CCCCCCCCCCP(=O)(c1ccccc1)c1ccc2c(c1)OCCOCCOCCOCCO2 (configuration not stated),31.4,28.2 µM,30.5,,33.9,19.7,34.8 µM,29.4,22.7,,,,,,,,22.8 µM,,,
C[P+]1(Cc2ccccc2)CCCC1,> 100,> 100 µM,> 100,,> 100,> 100,> 100 µM,> 100,> 100,,,,,,,,> 100 µM,,,
CC(=O)[CH-]C(=O)c1ccccc1.CC(=O)[CH-]C(=O)c1ccccc1.Cl.[O-]c1ccnc2ccccc12.[O-]c1ccnc2ccccc12.[Ti+4],> 100,> 100 µM,> 100,,> 100,> 100,> 100 µM,> 100,> 100,> 100,> 100,> 100,,> 100,> 100,,,> 100,> 100,> 100
c1ccc(C2=NOC3C4CCC(C4)C23)cc1 (configuration not stated),> 100,> 100 µM,> 100,,> 100,> 100,> 100 µM,> 100,> 100,,,,,,,,> 100 µM,,,
O=C1c2ccccc2C(=O)N1CCCOCc1c[nH]c(=O)[nH]c1=O,> 100,> 100 µM,> 100,,> 100,> 100,> 100 µM,> 100,> 100,,,,,,,,,,,
COc1cccc(NC(=O)CSc2nnc(Cc3ccccc3)o2)c1,63.6,> 100 µM,> 100,,> 100,> 100,> 100 µM,> 100,> 100,,,,,,,,,,,
CN(C)NC1=C([N+](=O)[O-])C=NN(c2ccccc2)C1,3.18,3.09 µM,4.33,,15.1,3.29,3.46 µM,3.14,3.19,,,,,,,,2.51 µM,,,
COC(=O)[C@H](Cc1cn(C)cn1)NC(=O)[C@H](CC(=O)OCc1ccccc1)NC(=O)Nc1cc(C(F)(F)F)cc(C(F)(F)F)c1,24,> 100 µM,16.9,23.3,34.5,6.25,21.4 µM,,24.2,10.4,17.9,5.03,10.9,2.5,9.07,3.67 µM and 2.04 µM,9.41 µM and 4.34 µM,,11.5,16.3
C=C1C(=O)O[C@H](c2ccoc2)C[C@@H]1[C@@]1(C)CCCC2(C)C(=O)OCC21 (some centres not stated),> 100,> 100 µM,> 100,,> 100,> 100,> 100 µM,> 100,> 100,,,,,,,,,,,
CN(c1ccccc1)c1cc2ccccc2nn1,> 100,> 100 µM,> 100,,> 100,> 100,> 100 µM,> 100,> 100,,,,,,,,> 100 µM,,,
Cc1cccc(C)c1NC(=O)CCC(=O)NC(N)=NC#N,> 100,> 100 µM,> 100,,> 100,> 100,> 100 µM,> 100,> 100,,,,,,,,> 100 µM,,,
CN(C)NC(=O)/C(=C/c1ccc(Cl)cc1)NC(=O)c1ccccc1,> 100,> 100 µM,> 100,,> 100,> 100,> 100 µM,> 100,> 100,,,,,,,,> 100 µM,,,
CC1OC(n2cc(C(F)(F)F)c(=O)[nH]c2=O)C=CC1=O (configuration not stated),31.4,47 µM,52.3,,66.1,31.9,44.9 µM,47.5,33,,,,,,,,33.3 µM,,,
COc1ccc(CN2C(=O)[C@@H]3Cc4c(OC)c(C)c(OC)c(OC)c4[C@H](/C2=C\c2cc(OC)c(OC)c(C)c2OC)N3C(=O)OC(C)C)cc1,> 100,,> 100,,34.1,> 100,> 100 µM,> 100,> 100,,,,,,,,> 100 µM,,,
CC(=O)OCC1OC(n2cccnc2=O)C(OC(C)=O)C1OC(C)=O (configuration not stated),> 100,> 100 µM,> 100,,> 100,> 100,> 100 µM,> 100,> 100,,,,,,,,> 100 µM,,,
COc1cc2c(cc1OC)C(C(CCCCCC(CCC(C)C)C1NCCc3cc(OC)c(OC)cc31)CCC(C)C)NCC2 (configuration not stated),3.17,0.851 µM,3.11,2.41,3.6,3.12,2.99 µM,2.97,3.22,1.68,0.274,1.55,0.791,1.61,1.58,,,1.59,1.59,1.79

SMILES,TGI (ACHN renal) [µM],TGI (HCT-15 colon),TGI (HOP-62 NSCLC) [µM],TGI (MDA-MB-231 breast) [µM],TGI (NCI-H226 lung) [µM],TGI (OVCAR-3 ovarian) [µM],TGI (SK-OV-3 ovarian),TGI (UACC-62 melanoma) [µM],TGI (UO-31 renal) [µM],GI50 (ACHN renal) [µM],GI50 (HCT-15 colon) [µM],GI50 (HOP-62 NSCLC) [µM],GI50 (MDA-MB-231 breast) [µM],GI50 (OVCAR-3 ovarian) [µM],GI50 (SK-OV-3 ovarian) [µM],GI50 (SR leukemia),TGI (SR leukemia),GI50 (UACC-62 melanoma) [µM],GI50 (UO-31 renal) [µM],GI50 (NCI-H226 lung) [µM]
COC(=O)C1=CC2C(=O)OC1C1C(=O)NC(=O)C21 (configuration not stated),> 100,,> 100,,,> 100,> 100 µM,> 100,> 100,,,,,,,,> 100 µM,,,
CCC12C=CCN(CCc3c([nH]c4ccccc34)/C=C\1)C2 (configuration not stated),> 100,> 100 µM,> 100,,> 100,> 100,,> 100,> 100,,,,,,,,> 100 µM,,,
O=C(NC1CC1)c1c(O)[nH]c(=S)[nH]c1=O,> 100,> 100 µM,> 100,,> 100,> 100,> 100 µM,> 100,> 100,,,,,,,,> 100 µM,,,
CC1(C)c2ccccc2N2C(c3ccccc3)=NOC21C (configuration not stated),> 100,> 100 µM,> 100,,> 100,> 100,> 100 µM,> 100,> 100,,,,,,,,> 100 µM,,,
CCOC(=O)c1cc(=O)n(C)c(=O)n1C,> 100,> 100 µM,> 100,,> 100,> 100,> 100 µM,> 100,> 100,,,,,,,,,,,
O=c1nc2sc3ccccc3c(=O)n2[nH]1,> 100,> 100 µM,> 100,,> 100,> 100,> 100 µM,> 100,> 100,,,,,,,,> 100 µM,,,
O=C(O)c1ccc2c(c1)C(=O)N(c1ccc(S(=O)(=O)c3ccc(N4C(=O)c5ccc(C(=O)O)cc5C4=O)cc3)cc1)C2=O,> 100,> 100 µM,> 100,,> 100,> 100,> 100 µM,> 100,> 100,,,,,,,,> 100 µM,,,
Nc1ccccc1C#C/C=C\C#Cc1ccccc1C#CCO,18.3,18.3 µM,> 50,28.7,,18.5,27 µM,15.3,> 50,6.11,4.92,8.35,7.73,6.63,12.1,0.405 µM,> 50 µM,5.69,6.69,
COc1cccc2c1C(=O)c1c(O)c3c(c(O)c1C2=O)C[C@@](O)(C(=O)CO)CC3OC1CC(N)C(OC2CCCCO2)C(C)O1 (some centres not stated),0.029,2.36 µM and 13.3 µM,,0.273,,,2.09 µM and 12 µM,,5.46,,0.034,0.0029,,0.0709,0.0465,< 0.001 µM,,0.0205,,
O/N=C(\CC(O)(C(F)(F)F)C(F)(F)F)c1cccs1,> 10,> 10 µM,> 10,> 10,> 10,> 10,> 10 µM,> 10,> 10,,,,,,,,,,,
COC(=O)c1c(O)ccc(O)c1C(C(C)=O)C(C)=O,,> 100 µM,> 100,,,> 100,> 100 µM,> 100,> 100,,,,,,,,,,,
Cc1ccccc1NC(=O)Cc1nc2ccccc2s1,29.7,,,,34.9,32,43.3 µM,35.7,23.7,,,,,,,,63 µM,,,
CC[C@H](C)[C@@H]([C@@H](CC(=O)N1CCC[C@H]1[C@H](OC)[C@@H](C)C(=O)NCCc1ccccc1)OC)N(C)C(=O)C(NC(=O)[C@H](C(C)C)N(C)C)C(C)C (some centres not stated),> 10,> 10 µM,3.02,0.00271,0.00784,0.000544,3.48 µM,> 10,> 10,,,,,,0.00047,,,,,
CCN(CC)CCNC(=O)c1cccc2c1-c1ccccc1C2=O,> 100,> 100 µM,> 100,> 100,> 100,> 100,> 100 µM,> 100,> 100,> 100,> 100,> 100,> 100,> 100,> 100,,,> 100,> 100,> 100
Cc1ccc(S(=O)(=O)OCOS(=O)(=O)c2ccc(C)cc2)cc1,> 100,> 100 µM,> 100,,,> 100,> 100 µM,,> 100,,,,,,,,> 100 µM,,,
O=S1(=O)c2ccccc2N(c2ccccc2)c2nnnn21,> 100,37.8 µM,45.9,72.4,> 100,47.2,> 100 µM,37.1,> 100,,,,,,,,,,,
O=C(/C=C/c1ccc(Cl)c(Cl)c1)c1ccccc1Cl,28.6,9.97 µM,34.2,,31.6,23,57.8 µM,25.5,27.8,,,,,,,,36.7 µM,,,
Cc1ccc2c(c1)-c1c3c(nn1C)-c1ccccc1SC3O2 (configuration not stated),> 100,,> 100,,,> 100,> 100 µM,,88.7,,,,,,,,,,,
CCN1CCN(c2nc(C)cc(NCc3cc(Nc4ccnc5cc(Cl)ccc45)ccc3F)n2)CC1,7.4,3.66 µM,4.57,3.56,10.3,4.93,15 µM,,2.99,2.47,1.46,1.58,1.44,1.96,4.14,1.3 µM,5.89 µM,,1.31,2.82
CC(=O)OC1CCC2OOC1O2 (configuration not stated),> 100,> 100 µM,> 100,,> 100,> 100,> 100 µM,> 100,> 100,,,,,,,,> 100 µM,,,
